US8952128B2, “Somatostatin-dopamine chimeric analogs” (priority 2012, dated 2015)
Bridge positions count the residues as written; N and C are the ends. Square brackets hold non-standard residues; d marks the D form. Peptide text beside a SMILES is read from it. * marks the point of attachment. X2 = CN1C[C@H](CSCC(=O)*)C[C@@H]2c3cccc4[nH]cc(c34)C[C@H]21; 4Pal = N[C@@H](Cc1ccncc1)C(=O)O; dDab = NCC[C@@H](N)C(=O)O

Experiments:
hDRD2 = hDRD2 (Homo sapiens (Human), UniProt P14416); assay: cell-based; settings: for Emax: read-out: hDRD2 % Emax ± SEM
Procedure: (§5) The ability of select compounds according to the present invention to activate hSSTR2 and hDRD2 was determined by the intracellular calcium mobilization assay using FLIPR Calcium 4 assay kit (Molecular Devices).
(§6) Cells expressing hSSTR2 or hDRD2 were plated in 384-well microplates in tissue culture media and incubated for 16-24 hours at 37° C. in a humidified atmosphere with 5% CO2. Medium was replaced by loading buffer containing Hank's buffered saline, 20 mM HEPES, 2.5 mM probenecid and Calcium 4 dye, and the plates were incubated at 37° C. for 60 minutes.

hSSTR2 = hSSTR2 (Homo sapiens (Human), UniProt P30874); assay: Intracellular calcium mobilization assay (FLIPR Calcium 4), hSSTR2; type: cell-based; settings: for Emax: read-out: hSSTR2 % Emax ± SEM;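 on all read-outs here: agonist activity read as intracellular calcium rise in cells expressing human SSTR2, loaded with a calcium-sensitive dye for 60 min at 37 °C, measured by FLIPR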
Procedure: as §5, §6

hSSTR4 = hSSTR4 (Homo sapiens (Human), UniProt P31391); assay: Somatostatin receptor radioligand binding assay, hSSTR4; settings: CHO-K1 membranes, [125I-Tyr11]-SRIF-14; read-out: hSSTR4 Ki (nM) ± SEM
Procedure: (§1) The affinities of a test compound for the human somatostatin receptors were determined by radioligand binding assays in CHO-K1 cells stably transfected with each of the human somatostatin receptor subtypes, hSSTR1-5. […] Clonal cell lines stably expressing each of the somatostatin receptors were obtained by transfection into CHO-K1 cells (ATCC) and subsequently selected with culture media containing 0.8 mg/mL of G418 (Life Technologies).
(§2) Membranes for in vitro receptor binding assays were obtained by the following procedures. CHO-K1 cells expressing one of the somatostatin receptors were homogenized in ice-cold buffer with 10 mM Tris-HCl, 5 mM EDTA, 3 mM EGTA, 1 mM phenylmethylsuphonyl fluoride, pH 7.6, using Polytron PT10-35GT (Kinematica) at 18,000 rpm for 30 seconds and centrifuged at 500×g for 10 minutes. The supernatant containing the plasma membranes was centrifuged at 100,000×g for 30 minutes and the pellet was resuspended in buffer containing 20 mM glycine-glycine, 1 mM MgCl2, 250 mM sucrose, pH 7.2, for storage at −80° C.
(§3) For the hSSTR3 and 4 assays, membranes and various concentrations of test compounds were incubated in 96-well plates for 60 minutes at 25° C. with 0.05 nM [^125I-Tyr^11]-SRIF-14 (PerkinElmer Life Science) in 50 mM HEPES, 0.2% BSA, 5 mM MgCl2, 200 KIU/mL trasylol, 0.02 mg/mL bacitracin, and 0.02 mg/mL phenylmethylsuphonyl fluoride, pH 7.5.
(§4) The incubations were terminated by rapid filtration through GF/C glass microfiber filter plates (pre-wet with 0.3% polyethyleneimine and 0.1% BSA) using a 96-well cell harvester (Brandel). Plates were washed six times with 1 mL/well aliquots of ice-cold buffer containing 50 mM Tris buffer, pH 7.7. Specific binding was defined as the total radioligand bound minus the bound in the presence of 1000 nM SRIF-14.

hSSTR3 = hSSTR3 (Homo sapiens (Human), UniProt P32745); assay: Somatostatin receptor radioligand binding assay, hSSTR3; settings: CHO-K1 membranes, [125I-Tyr11]-SRIF-14; read-out: hSSTR3 Ki (nM) ± SEM
Procedure: as §1, §2, §3, §4

hSSTR2, sequence (P30874 whole entry): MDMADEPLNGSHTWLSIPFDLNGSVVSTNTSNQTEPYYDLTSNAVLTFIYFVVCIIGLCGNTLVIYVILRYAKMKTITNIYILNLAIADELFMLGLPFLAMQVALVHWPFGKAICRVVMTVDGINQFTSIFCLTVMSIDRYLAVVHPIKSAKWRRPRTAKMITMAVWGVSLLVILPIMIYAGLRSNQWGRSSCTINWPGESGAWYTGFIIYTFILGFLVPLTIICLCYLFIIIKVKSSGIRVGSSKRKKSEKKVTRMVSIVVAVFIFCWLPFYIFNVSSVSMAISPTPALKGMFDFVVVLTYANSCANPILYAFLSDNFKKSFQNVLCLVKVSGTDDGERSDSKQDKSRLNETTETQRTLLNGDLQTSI
hSSTR4, sequence (P31391 whole entry): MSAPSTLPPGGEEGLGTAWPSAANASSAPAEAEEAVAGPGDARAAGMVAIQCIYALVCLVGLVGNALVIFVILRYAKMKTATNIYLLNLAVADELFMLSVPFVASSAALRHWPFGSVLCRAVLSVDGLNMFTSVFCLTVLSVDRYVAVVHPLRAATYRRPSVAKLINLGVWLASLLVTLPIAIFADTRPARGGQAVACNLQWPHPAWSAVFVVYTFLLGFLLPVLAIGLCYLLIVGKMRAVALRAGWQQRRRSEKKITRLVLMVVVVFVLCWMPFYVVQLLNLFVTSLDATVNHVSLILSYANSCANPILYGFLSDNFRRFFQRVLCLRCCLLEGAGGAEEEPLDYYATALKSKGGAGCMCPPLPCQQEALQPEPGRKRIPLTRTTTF
hSSTR3, sequence (P32745 whole entry): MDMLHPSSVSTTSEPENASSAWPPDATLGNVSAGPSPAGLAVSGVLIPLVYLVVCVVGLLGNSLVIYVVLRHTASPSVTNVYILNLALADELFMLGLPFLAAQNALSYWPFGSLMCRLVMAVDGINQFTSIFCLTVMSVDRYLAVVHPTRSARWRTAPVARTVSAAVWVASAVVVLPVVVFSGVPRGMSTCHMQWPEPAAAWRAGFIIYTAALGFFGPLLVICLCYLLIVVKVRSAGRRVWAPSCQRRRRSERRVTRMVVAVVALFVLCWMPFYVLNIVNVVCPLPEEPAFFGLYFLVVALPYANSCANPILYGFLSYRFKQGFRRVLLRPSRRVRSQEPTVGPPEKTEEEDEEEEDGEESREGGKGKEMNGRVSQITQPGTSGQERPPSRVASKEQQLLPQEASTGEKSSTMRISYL

Row | SMILES | EC50 (hDRD2) | EC50 (hSSTR2) | Emax (hSSTR2) | Emax (hDRD2) | also measured
1 | C[C@@H](O)[C@@H]1NC(=O)[C@H](CCCCN)NC(=O)[C@@H](Cc2c[nH]c3ccccc23)NC(=O)[C@H](Cc2ccncc2)NC(=O)[C@H](Cc2ccccc2)NC(=O)[C@H](CCCNC(=N)N)NC(=O)[C@H](NC[C@H](CCCCNC(=O)CSC[C@@H]2C[C@@H]3c4cccc5[nH]cc(c45)C[C@H]3N(C)C2)NC(=O)CSC[C@@H]2C[C@@H]3c4cccc5[nH]cc(c45)C[C@H]3N(C)C2)CCCCNC(=O)[C@H](Cc2ccc(O)cc2)NC1=O [Compound 8, Dop1-Lys(Dop1)-psi(CH2NH)-cyclo(DLys-Arg-Phe-4Pal-DTrp-Lys-Thr-Tyr)] | 18 ± 4.1 nM | 29.8 ± 10.5 nM | 98.8 ± 2.6% |  | improvement in % Emax over Reference Compound C (hSSTR2; calcium mobilization): statistically significant improvement
2 | C[C@@H](O)[C@@H]1NC(=O)[C@H](CCCCN)NC(=O)[C@@H](Cc2c[nH]c3ccccc23)NC(=O)[C@H](Cc2ccncc2)NC(=O)[C@H](Cc2ccccc2)NC(=O)[C@H](CCCNC(=N)N)NC(=O)[C@H](NC[C@H](CCCCNC(=O)CSC[C@@H]2C[C@@H]3c4cccc5[nH]cc(c45)C[C@H]3N(C)C2)NC(=O)CSC[C@@H]2C[C@@H]3c4cccc5[nH]cc(c45)C[C@H]3N(C)C2)CCCCNC(=O)[C@H](Cc2ccccc2)NC1=O [Compound 9, Dop1-Lys(Dop1)-psi(CH2NH)-cyclo(DLys-Arg-Phe-4Pal-DTrp-Lys-Thr-Phe)] | 15.5 ± 3.7 nM | 22.2 ± 5.5 nM | 98.4 ± 1.6% |  | improvement in % Emax over Reference Compound C (hSSTR2; calcium mobilization): statistically significant improvement
3 | C[C@@H](O)[C@@H]1NC(=O)[C@H](CCCCN)NC(=O)[C@@H](Cc2c[nH]c3ccccc23)NC(=O)[C@H](Cc2ccccc2)NC(=O)[C@H](Cc2ccccc2)NC(=O)[C@H](CCCNC(=N)N)NC(=O)[C@H](NCCS(=O)(=O)C[C@@H]2C[C@@H]3c4cccc5[nH]cc(c45)C[C@H]3N(C)C2)CCCCNC(=O)[C@H](Cc2ccc(F)cc2)NC1=O [Compound 10, Dop1(SO2)-psi(CH2NH)-cyclo(DLys-Arg-Phe-Phe-DTrp-Lys-Thr-4FPhe)] |  |  | 84.8 ± 13% |  | Ki (hSSTR4): 20.6 nM; Ki (hSSTR3): 27.9 nM
4 | C[C@@H](O)[C@@H]1NC(=O)[C@H](CCCCN)NC(=O)[C@@H](Cc2c[nH]c3ccccc23)NC(=O)[C@H](Cc2ccncc2)NC(=O)[C@H](Cc2ccccc2)NC(=O)[C@H](CCCNC(=N)N)NC(=O)[C@H](NCC[S@+]([O-])C[C@@H]2C[C@@H]3c4cccc5[nH]cc(c45)C[C@H]3N(C)C2)CCCCNC(=O)[C@H](Cc2ccc(O)cc2)NC1=O [Compound 11, Dop1[(R)SO]-psi(CH2NH)-cyclo(DLys-Arg-Phe-4Pal-DTrp-Lys-Thr-Tyr)] |  |  | 92.3 ± 4.6% |  | Ki (hSSTR4): 2.1 ± 0.4 nM; Ki (hSSTR3): 30.9 ± 11.7 nM
5 | C[C@@H](O)[C@@H]1NC(=O)[C@H](CCCCN)NC(=O)[C@@H](Cc2c[nH]c3ccccc23)NC(=O)[C@H](Cc2ccncc2)NC(=O)[C@H](Cc2ccccc2)NC(=O)[C@H](CCCNC(=N)N)NC(=O)[C@H](NCCS(=O)(=O)C[C@@H]2C[C@@H]3c4cccc5[nH]cc(c45)C[C@H]3N(C)C2)CCCCNC(=O)[C@H](Cc2ccc(O)cc2)NC1=O [Compound 20, Dop1(SO2)-psi(CH2NH)-cyclo(DLys-Arg-Phe-4Pal-DTrp-Lys-Thr-Tyr)] | 7.4 ± 1.5 nM | 0.7 ± 0.1 nM | 100.2 ± 0.9% |  | 
6 | C[C@@H](O)[C@@H]1NC(=O)[C@H](CCCCN)NC(=O)[C@@H](Cc2c[nH]c3ccccc23)NC(=O)[C@H](Cc2ccncc2)NC(=O)[C@H](Cc2ccccc2)NC(=O)[C@H](CCCNC(=N)N)NC(=O)[C@H](NC(=O)CSC[C@@H]2C[C@@H]3c4cccc5[nH]cc(c45)C[C@H]3N(C)C2)CCCCNC(=O)[C@H](Cc2ccccc2)NC1=O [Compound 24, Dop1-cyclo(DLys-Arg-Phe-4Pal-DTrp-Lys-Thr-Phe)] (X2-[dK]RF[4Pal][dW]KTF; lactam 1-C) | 37.3 ± 6.4 nM |  |  |  | improvement in EC50 over Reference Compound A (hSSTR2; Student's t-test, one-tailed, p <0.05): statistically significant improvement; EC50 value lower than that for Reference Compound A (hSSTR2; calcium mobilization, Tables IV and VI): about 9 fold
7 | C[C@@H](O)[C@@H]1NC(=O)[C@H](CCCCN)NC(=O)[C@@H](Cc2c[nH]c3ccccc23)NC(=O)[C@H](Cc2ccccc2)NC(=O)[C@H](Cc2ccccc2)NC(=O)[C@H](CCCNC(=N)N)NC(=O)[C@H](NC(=O)[C@@H](Cc2ccc(O)cc2)NC(=O)CSC[C@@H]2C[C@@H]3c4cccc5[nH]cc(c45)C[C@H]3N(C)C2)CCCCNC(=O)[C@H](Cc2ccccc2)NC1=O [Compound 37, Dop1-DTyr-cyclo(DLys-Arg-Phe-Phe-DTrp-Lys-Thr-Phe)] (X2-[dY][dK]RFF[dW]KTF; lactam 2-C) |  |  | 85.5 ± 6.7% | 93.7 ± 4.3% | 
8 | C[C@@H](O)[C@@H]1NC(=O)[C@H](CCCCN)NC(=O)[C@@H](Cc2c[nH]c3ccccc23)NC(=O)[C@H](Cc2ccccc2)NC(=O)[C@H](Cc2ccccc2)NC(=O)[C@H](CCCNC(=N)N)NC(=O)[C@H](NC[C@@H](Cc2ccc(O)cc2)NC(=O)CSC[C@@H]2C[C@@H]3c4cccc5[nH]cc(c45)C[C@H]3N(C)C2)CCCCNC(=O)[C@H](Cc2ccccc2)NC1=O [Compound 41, Dop1-DTyr-psi(CH2NH)-cyclo(DLys-Arg-Phe-Phe-DTrp-Lys-Thr-Phe)] | 62.6 nM | 29.6 nM | 104% |  | 
9 | C[C@@H](O)[C@@H]1NC(=O)[C@H](CCCCN)NC(=O)[C@@H](Cc2c[nH]c3ccccc23)NC(=O)[C@H](Cc2ccccc2)NC(=O)[C@H](Cc2ccccc2)NC(=O)[C@H](CCCNC(=N)N)NC(=O)[C@H](NC[C@H](Cc2ccc(O)cc2)NC(=O)CCN(C[C@@H]2C[C@@H]3c4cccc5[nH]cc(c45)C[C@H]3N(C)C2)S(C)(=O)=O)CCCCNC(=O)[C@H](Cc2ccc(F)cc2)NC1=O [Compound 42, [N-(D-6-methyl-8β-ergolinylmethyl)-N-(methylsulfonyl)]-aminopropionyl-Tyr-psi(CH2NH)-cyclo(DLys-Arg-Phe-Phe-DTrp-Lys-Thr-4FPhe)] |  |  | 78.6 ± 2.3% | 94.5 ± 0.3% | 
10 | C[C@@H](O)[C@@H]1NC(=O)[C@H](CCCCN)NC(=O)[C@@H](Cc2c[nH]c3ccccc23)NC(=O)[C@H](Cc2ccccc2)NC(=O)[C@H](Cc2ccccc2)NC(=O)[C@H](CCCNC(=N)N)NC(=O)[C@H](NC[C@H](CCCCNC(=O)CSC[C@@H]2C[C@@H]3c4cccc5[nH]cc(c45)C[C@H]3N(C)C2)NC(=O)CSC[C@@H]2C[C@@H]3c4cccc5[nH]cc(c45)C[C@H]3N(C)C2)CCCCNC(=O)[C@H](Cc2ccc(F)cc2)NC1=O [Compound 47, Dop1-Lys(Dop1)-psi(CH2NH)-cyclo(DLys-Arg-Phe-Phe-DTrp-Lys-Thr-4FPhe)] | 46.6 ± 12.2 nM | 77.5 ± 19 nM | 96.2 ± 5.9% |  | improvement in % Emax over Reference Compound C (hSSTR2; calcium mobilization): statistically significant improvement
11 | C[C@@H](O)[C@@H]1NC(=O)[C@H](CCCCN)NC(=O)[C@@H](Cc2c[nH]c3ccccc23)NC(=O)[C@H](Cc2ccccc2)NC(=O)[C@H](Cc2ccccc2)NC(=O)[C@H](CCCNC(=N)N)NC(=O)[C@H](NC(=O)CSC[C@@H]2C[C@@H]3c4cccc5[nH]cc(c45)C[C@H]3N(C)C2)CCNC(=O)[C@H](Cc2ccccc2)NC1=O [Reference Compound A, Dop1-cyclo(DDab-Arg-Phe-Phe-DTrp-Lys-Thr-Phe), reference compound] (X2-[dDab]RFF[dW]KTF; lactam 1-C) |  |  | 86.2 ± 7% | 59.7 ± 7% | 
12 | C[C@@H](O)[C@@H]1NC(=O)[C@H](CCCCN)NC(=O)[C@@H](Cc2c[nH]c3ccccc23)NC(=O)[C@H](Cc2ccccc2)NC(=O)[C@H](Cc2ccccc2)NC(=O)[C@H](CCCNC(=N)N)NC(=O)[C@H](NC(=O)[C@H](Cc2ccc(O)cc2)NC(=O)CSC[C@@H]2C[C@@H]3c4cccc5[nH]cc(c45)C[C@H]3N(C)C2)CCNC(=O)[C@H](Cc2ccccc2)NC1=O [Reference Compound B, Dop1-Tyr-cyclo(DDab-Arg-Phe-Phe-DTrp-Lys-Thr-Phe), reference compound] (X2-Y[dDab]RFF[dW]KTF; lactam 2-C) |  |  | 66.7 ± 5.8% | 92.8 ± 6.6% | 
13 | C[C@@H](O)[C@@H]1NC(=O)[C@H](CCCCN)NC(=O)[C@@H](Cc2c[nH]c3ccccc23)NC(=O)[C@H](Cc2ccccc2)NC(=O)[C@H](Cc2ccccc2)NC(=O)[C@H](CCCNC(=N)N)NC(=O)[C@H](NC(=O)[C@H](CCCCNC(=O)CSC[C@@H]2C[C@@H]3c4cccc5[nH]cc(c45)C[C@H]3N(C)C2)NC(=O)CSC[C@@H]2C[C@@H]3c4cccc5[nH]cc(c45)C[C@H]3N(C)C2)CCNC(=O)[C@H](Cc2ccccc2)NC1=O [Reference Compound C, Dop1-Lys(Dop1)-cyclo(DDab-Arg-Phe-Phe-DTrp-Lys-Thr-Phe), reference compound] (X2-K(X2)[dDab]RFF[dW]KTF; lactam 2-C) | 112 ± 39.2 nM | 68.7 ± 40.8 nM |  |  | 
